The source of these data is PMC11340245, “Studies of Protein Binding to Biomimetic Membranes Using a Group of Uniform Materials Based on Organic Salts Derived From 8-Anilino-1-naphthalenesulfonic Acid” (Applied Spectroscopy, 2024).

The structures appear in SMILES notation.

This data set can be described thus: Thermal stability by thermogravimetric analysis (TGA). It counts as physicochemical. Particulars: heated from 25 to 595 °C, ramp rate 10 °C min^–1. As to the method: The thermal stability of [N4444][ANS] and [P4444][ANS] was investigated using a TA Discovery TGA 550 instrument. GUMBOS were heated from 25 to 595 °C using a ramp rate of 10 °C min^–1. The melting points of these compounds were also determined using a MEL-TEMP apparatus. Membrane partition and competitive binding assays were performed on a BioTek Cytation 3 imaging reader.
Thermal behaviors of [N4444][ANS] and [P4444][ANS] GUMBOS were further investigated using TGA. Figure S14 and Table S2 (Supplemental Material) present the weight loss curves and temperatures at which GUMBOS weight was reduced by 50% (T50%), respectively.

On to `CCCC[N+](CCCC)(CCCC)CCCC.O=S(=O)([O-])c1cccc2cccc(Nc3ccccc3)c12` [[N4444][ANS]], for which the “T50% (half weight loss temperature)” value was 308 ºC.

As to `CCCC[P+](CCCC)(CCCC)CCCC.O=S(=O)([O-])c1cccc2cccc(Nc3ccccc3)c12` [[P4444][ANS]], the “T50% (half weight loss temperature)” value is recorded as 422 ºC.
